Legend:
Assay type in all cases: tissue-based
[1] = target: Muscarinic acetylcholine receptor; assay: Compound was tested for its ability to inhibit muscarinic receptor in rat cerebral cortex using [3H]quinuclidinyl benzilate (QNB); Range is 330-360
[2] = target: Muscarinic acetylcholine receptor; assay: Compound was tested for its ability to inhibit muscarinic receptor in rat cerebral cortex using [3H]oxotremorine-M (OXO-M); Range is 18-21
[3] = target: Muscarinic acetylcholine receptor; assay: Compound was tested for its ability to inhibit muscarinic receptor in rat cerebral cortex using [3H]quinuclidinyl benzilate (QNB); Range is 730-1300
[4] = target: Muscarinic acetylcholine receptor; assay: Compound was tested for its ability to inhibit muscarinic receptor in rat cerebral cortex using [3H]oxotremorine-M (OXO-M); Range is 62-70
[5] = target: Muscarinic acetylcholine receptor; assay: Compound was tested for its ability to inhibit muscarinic receptor in rat cerebral cortex using [3H]oxotremorine-M (OXO-M); Range is 48-100
[6] = target: Muscarinic acetylcholine receptor; assay: Compound was tested for its ability to inhibit muscarinic receptor in rat cerebral cortex using [3H]quinuclidinyl benzilate (QNB); Range is 530-1100
[7] = target: Muscarinic acetylcholine receptor; assay: Compound was tested for its ability to inhibit muscarinic receptor in rat cerebral cortex using [3H]oxotremorine-M (OXO-M); Range is 28-58
[8] = target: Muscarinic acetylcholine receptor; assay: Compound was tested for its ability to inhibit muscarinic receptor in rat cerebral cortex using [3H]oxotremorine-M (OXO-M); Range is 120-220
[9] = target: Muscarinic acetylcholine receptor; assay: Compound was tested for its ability to inhibit muscarinic receptor in rat cerebral cortex using [3H]quinuclidinyl benzilate (QNB); Range is 4300-9500
[10] = target: Muscarinic acetylcholine receptor; assay: Compound was tested for its ability to inhibit muscarinic receptor in rat cerebral cortex using [3H]quinuclidinyl benzilate (QNB); Range is […]
[11] = target: Muscarinic acetylcholine receptor; assay: Compound was tested for its ability to inhibit muscarinic receptor in rat cerebral cortex using [3H]quinuclidinyl benzilate (QNB);
[12] = target: Muscarinic acetylcholine receptor; assay: Compound was tested for its ability to inhibit muscarinic receptor in rat cerebral cortex using [3H]oxotremorine-M (OXO-M); Range is 240-290
[13] = target: Muscarinic acetylcholine receptor; assay: Compound was tested for its ability to inhibit muscarinic receptor in rat cerebral cortex using [3H]quinuclidinyl benzilate (QNB); Range is 9700-23000
[14] = target: Muscarinic acetylcholine receptor; assay: Compound was tested for its ability to inhibit muscarinic receptor in rat cerebral cortex using [3H]oxotremorine-M (OXO-M); Range is 65-260
[15] = target: Muscarinic acetylcholine receptor; assay: Compound was tested for its ability to inhibit muscarinic receptor in rat cerebral cortex using [3H]quinuclidinyl benzilate (QNB); Range is 3400-4200
[16] = target: Muscarinic acetylcholine receptor; assay: Compound was tested for its ability to inhibit muscarinic receptor in rat cerebral cortex using [3H]oxotremorine-M (OXO-M); Range is 21-36

`CO/N=C(/C#N)C1=CC2CCN(C1)C2` (configuration not stated) was tested, and the IC50 [1] was 350 nM and the IC50 [2] was 20 nM.

Molecule `CO/N=C\C1=CC2CCN(C1)C2` (configuration not stated) has an IC50 [3] of 960 nM and an IC50 [4] of 64 nM.

`CO/N=C(/Cl)C1=CC2CCN(C1)C2` (configuration not stated) gave an IC50 [5] of 69 nM and an IC50 [6] of 770 nM.

`CO/N=C(/F)C1=CCCN(C)C1` gave an IC50 [7] of 39 nM.

Molecule `CO/N=C(/C#N)C1=CCCN(C)C1` has an IC50 [8] of 150 nM and an IC50 [9] of 4500 nM.

With `CO/N=C(/F)C1=CC2CCN(C1)C2` (configuration not stated) the IC50 [7] was 26 nM and the IC50 [10] was 630 nM.

For `CO/N=C(/Cl)C1=CCCN(C)C1`, the IC50 [11] was 2800 nM and the IC50 [12] was 260 nM.

`CO/N=C\C1=CCCN(C)C1` gave an IC50 [13] of 14000 nM and an IC50 [14] of 110 nM.

`COC(=O)C1=CC2CCN(C1)C2` (configuration not stated) was tested, and the IC50 [15] was 3800 nM and the IC50 [16] was 27 nM.
